The values below come from patent US20260083865A1, “PROSTATE SPECIFIC MEMBRANE ANTIGEN (PSMA) LIGANDS AND USE THEREOF” (priority 2022, published 2026).

Numbered stars: 1 amine (or outer) side, 2 acyl side, 3 side chain; on linkers, the order of the positions; unused ones are H or OH. Bridge positions count the residues as written; N and C are the ends. Square brackets hold non-standard residues; d marks the D form. Peptide text beside a SMILES is read from it. * marks the point of attachment. ξ: configuration not given here. NH(CH2)5NHDOTA = O=C(O)CN1CCN(CC(=O)O)CCN(CC(=O)NCCCCCN*)CCN(CC(=O)O)CC1; DOTA = O=C(O)CN1CCN(CC(=O)O)CCN(CC(=O)*)CCN(CC(=O)O)CC1; Phe(4-SO3H) = N[C@@H](Cc1ccc(S(=O)(=O)O)cc1)C(=O)O; Trp(6-Cl) = N[C@@H](Cc1c[nH]c2cc(Cl)ccc12)C(=O)O; Pro(trans-4-F) = O=C(O)[C@@H]1C[C@@H](F)CN1; Tyr(3-I) = N[C@@H](Cc1ccc(O)c(I)c1)C(=O)O; Phe(4-Cl) = N[C@@H](Cc1ccc(Cl)cc1)C(=O)O; Phe(4-F) = N[C@@H](Cc1ccc(F)cc1)C(=O)O; Arg(Me) = CNC(=N)NCCC[C@H](N)C(=O)O; Ethylenediamine = C(CN[*:2])N[*:1]; X1 = O=C(CC1CCN([*:1])CC1)[*:2]; Lys(Me) = CNCCCC[C@H](N)C(=O)O; Tle = CC(C)(C)[C@H](N)C(=O)O; Aib = CC(C)(N)C(=O)O; ξP = O=C(O)C1CCCN1

For experiment [1], the target named is T1, Fc-fusion protein of human PSMA (hPSMA-Fc) (Homo sapiens, UniProt Q04609).
T1 construct: purchased Acro Biosystems PSA-H5264
T1 sequence (Q04609 44-750 limits assumed): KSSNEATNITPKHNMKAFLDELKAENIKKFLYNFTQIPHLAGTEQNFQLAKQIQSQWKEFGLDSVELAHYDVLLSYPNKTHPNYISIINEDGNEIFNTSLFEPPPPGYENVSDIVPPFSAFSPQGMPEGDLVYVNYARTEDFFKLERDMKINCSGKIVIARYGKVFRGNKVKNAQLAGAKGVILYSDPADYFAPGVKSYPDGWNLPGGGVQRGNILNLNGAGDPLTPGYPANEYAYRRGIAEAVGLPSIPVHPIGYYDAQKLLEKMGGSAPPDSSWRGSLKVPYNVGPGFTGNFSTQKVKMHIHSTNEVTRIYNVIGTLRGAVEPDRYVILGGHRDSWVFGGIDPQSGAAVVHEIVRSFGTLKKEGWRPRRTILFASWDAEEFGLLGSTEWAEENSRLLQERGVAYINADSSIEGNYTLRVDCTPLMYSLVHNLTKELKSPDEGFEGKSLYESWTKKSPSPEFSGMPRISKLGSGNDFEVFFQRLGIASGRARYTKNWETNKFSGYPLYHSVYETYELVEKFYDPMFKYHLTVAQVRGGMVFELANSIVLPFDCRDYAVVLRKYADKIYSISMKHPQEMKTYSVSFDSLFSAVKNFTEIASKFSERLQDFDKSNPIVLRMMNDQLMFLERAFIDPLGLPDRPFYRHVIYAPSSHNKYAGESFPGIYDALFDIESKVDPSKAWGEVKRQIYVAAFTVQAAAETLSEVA
Briefly: Surface plasmon resonance assay (Biacore T200, single cycle kinetic). In kind it is binding. To be noted: pKD category for PSMA SPR activity assay, hPSMA-Fc, 25° C.; read-out: pKD CAT (converted). An outline of the steps:
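KD, expressed as pKD, came from 1:1 Langmuir fits of reference- and buffer-blank-subtracted SPR data. The runs were single-cycle kinetics at 25° C in HBST/0.1% DMSO over human PSMA-Fc, captured to ~1000 RU on a peptide-coated CM5 surface and regenerated with 10 mM glycine pH 1.5.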
On the technique in general: Surface plasmon resonance follows binding to a sensor surface in real time, without labels.

Experiment [2] addresses T2, PSMA-expressing C4-2 cells (Homo sapiens, UniProt Q04609).
T2 construct: PSMA-expressing C4-2 cells (ATCC, Cat. No. CRL-3314) were cultured in RPMI-1640; host or cells: C4-2 cells
Briefly: FACS binding assay (competition with 50 nM PSM-0183). Particulars: pIC50 category of FACS binding, C4-2 cells; read-out: pIC50 [C4-2] CAT (converted). An outline of the steps:
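Competition format: fluorescent tracer PSM-0183 (50 nM) displaced from PSMA on C4-2 cells by a test compound titration over 1 h at 4 °C. Bound tracer was quantified as flow-cytometric AF488 median fluorescence after washing. Four-parameter logistic fits of MFI data gave IC50 and pIC50.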
A general note: Flow cytometry measures light scatter and fluorescence of single cells or particles in a stream.

T2 sequence (Q04609 whole entry): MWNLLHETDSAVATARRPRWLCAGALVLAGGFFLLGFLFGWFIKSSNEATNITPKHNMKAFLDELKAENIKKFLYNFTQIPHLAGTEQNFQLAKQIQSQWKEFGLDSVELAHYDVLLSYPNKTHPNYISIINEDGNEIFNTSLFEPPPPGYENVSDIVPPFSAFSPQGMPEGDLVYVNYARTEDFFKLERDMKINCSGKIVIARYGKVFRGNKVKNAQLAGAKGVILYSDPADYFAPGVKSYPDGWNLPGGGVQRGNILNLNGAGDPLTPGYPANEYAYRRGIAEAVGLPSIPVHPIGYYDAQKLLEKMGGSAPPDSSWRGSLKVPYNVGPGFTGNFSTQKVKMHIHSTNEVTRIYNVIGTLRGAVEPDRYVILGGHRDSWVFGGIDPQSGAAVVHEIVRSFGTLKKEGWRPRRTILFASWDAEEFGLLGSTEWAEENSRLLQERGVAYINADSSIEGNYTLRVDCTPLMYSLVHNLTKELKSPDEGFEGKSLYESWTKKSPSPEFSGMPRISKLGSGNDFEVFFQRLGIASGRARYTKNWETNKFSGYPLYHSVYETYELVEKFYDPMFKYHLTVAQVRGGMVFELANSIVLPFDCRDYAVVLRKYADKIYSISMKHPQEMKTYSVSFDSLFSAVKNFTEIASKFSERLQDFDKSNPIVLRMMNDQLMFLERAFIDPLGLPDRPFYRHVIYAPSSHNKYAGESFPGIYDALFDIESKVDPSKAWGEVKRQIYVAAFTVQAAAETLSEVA

Take `CC(=O)N[C@H](C(=O)NC(C)(C)C(=O)N[C@@H](Cc1ccccc1)C(=O)N[C@H]1CSSC[C@@H](C(=O)N[C@H](C(=O)N[C@H](C(N)=O)[C@@H](C)O)C(C)(C)C)NC(=O)[C@H](CC(N)=O)NC(=O)[C@H](CCCCNC(=O)CN2CCN(CC(=O)O)CCN(CC(=O)O)CCN(CC(=O)O)CC2)NC(=O)[C@H](CCC(N)=O)NC(=O)[C@H](CCCCN)NC1=O)[C@@H](C)O` [PSM-0385, Ac-Thr-Aib-Pho-[Cys-Lys-Gln-Lys(DOTA)-Asn-Cys]-Tle-Thr-NH2] (Ac-T[Aib]FCKQK(DOTA)NC[Tle]T-NH2; disulfide 4-9): the Kd in experiment [1] was 126 to 501 nM. Also, the IC50 in experiment [2] is 200 to 1260 nM.

`C[C@@H](O)[C@H](NC(=O)[C@@H](NC(=O)[C@@H]1CSSC[C@H](NC(=O)[C@H](Cc2ccc(S(=O)(=O)O)cc2)NC(=O)C(C)(C)NC(=O)[C@@H](NC(=O)CC2CCN(C(=O)CN3CCN(CC(=O)O)CCN(CC(=O)O)CCN(CC(=O)O)CC3)CC2)[C@@H](C)O)C(=O)N[C@@H](CCCCN)C(=O)N[C@@H](CCCNC(=N)N)C(=O)NC(C)(C)C(=O)N[C@@H](CC(N)=O)C(=O)N1)C(C)(C)C)C(N)=O` [PSM-0386, DOTA-Cmp-Thr-Aib-Fso-[Cys-Lys-Arg-Aib-Asn-Cys]-Tle-Thr-NH2] ({DOTA}-[X1]T[Aib][Phe(4-SO3H)]CKR[Aib]NC[Tle]T-NH2; disulfide 5-10): the Kd in experiment [1] was more than 501 nM. Besides, the IC50 in experiment [2] is more than 3160 nM.

With `CNCCCC[C@@H]1NC(=O)[C@@H](NC(=O)[C@H](Cc2ccc(O)c(I)c2)NC(=O)C(C)(C)NC(=O)[C@@H](NC(C)=O)[C@@H](C)O)CSSC[C@@H](C(=O)N[C@H](C(=O)N[C@H](C(N)=O)[C@@H](C)O)C(C)(C)C)NC(=O)[C@H](CC(N)=O)NC(=O)C(C)(C)NC(=O)[C@H](CCCNC(=N)NC)NC1=O` [PSM-0387, Ac-Thr-Aib-Miy-[Cys-Lys(Me)-Arg(Me)-Aib-Asn-Cys]-Tle-Thr-NH2] (Ac-T[Aib][Tyr(3-I)]C[Lys(Me)][Arg(Me)][Aib]NC[Tle]T-NH2; disulfide 4-9), in experiment [1], the Kd was more than 501 nM. Besides, in experiment [2], the IC50 is more than 3160 nM.

In the case of `CC(=O)N[C@H](C(=O)NC(C)(C)C(=O)N[C@@H](Cc1ccccc1)C(=O)N[C@H]1CSSC[C@@H](C(=O)N[C@H](C(=O)N2CCCC2C(N)=O)C(C)(C)C)NC(=O)[C@H](CC(N)=O)NC(=O)C(C)(C)NC(=O)[C@H](CCCNC(=N)N)NC(=O)[C@H](CCCCN)NC1=O)[C@@H](C)O` (stereo partly drawn) [PSM-0388, Ac-Thr-Aib-Phe-[Cys-Lys-Arg-Aib-Asn-Cys]-Tle-Pro-NH2] (Ac-T[Aib]FCKR[Aib]NC[Tle][ξP]-NH2; disulfide 4-9), in experiment [1], the Kd was less than 12.6 nM. Besides, the IC50 in experiment [2] was less than 200 nM.

For `CCCC[C@H](NC(=O)[C@@H]1CSSC[C@H](NC(=O)[C@H](Cc2ccccc2)NC(=O)[C@H](C)NC(=O)[C@@H](NC(C)=O)[C@@H](C)O)C(=O)N[C@@H](CCCCN)C(=O)N[C@@H](CCCNC(=N)N)C(=O)N[C@@H](C)C(=O)N[C@@H](CC(N)=O)C(=O)N1)C(=O)N[C@H](C(=O)N[C@H](CC(=O)O)C(N)=O)[C@@H](C)O` [PSM-0389, Ac-Thr-Ala-Phe-[Cys-Lys-Arg-Ala-Asn-Cys]-Nle-Thr-asp-NH2], in experiment [1], the Kd is 12.6 to 126 nM. In addition, the IC50 in experiment [2] was less than 200 nM.

For the molecule `CNCCCC[C@@H]1NC(=O)[C@@H](NC(=O)[C@H](Cc2c[nH]c3cc(Cl)ccc23)NC(=O)C(C)(C)NC(=O)[C@@H](NC(=O)CC2CCN(C(=O)CN3CCN(CC(=O)O)CCN(CC(=O)O)CCN(CC(=O)O)CC3)CC2)[C@@H](C)O)CSSC[C@@H](C(=O)N[C@H](C(N)=O)C(C)(C)C)NC(=O)[C@H](CC(N)=O)NC(=O)C(C)(C)NC(=O)[C@H](CCCNC(=N)NC)NC1=O` [PSM-0390, DOTA-Cmp-Tle-Aib-6Clw-[Cys-Lys(Me)-Arg(Me)-Aib-Asn-Cys]-Tle-NH2] ({DOTA}-[X1]T[Aib][Trp(6-Cl)]C[Lys(Me)][Arg(Me)][Aib]NC[Tle]-NH2; disulfide 5-10), in experiment [1], the Kd was less than 12.6 nM. Also, the IC50 in experiment [2] is less than 200 nM.

`CC(=O)N[C@H](C(=O)NC(C)(C)C(=O)N[C@@H](Cc1ccccc1)C(=O)N[C@H]1CSSC[C@@H](C(=O)N[C@H](C(=O)N[C@H](C(=O)NCCCCCNC(=O)CN2CCN(CC(=O)O)CCN(CC(=O)O)CCN(CC(=O)O)CC2)[C@@H](C)O)C(C)(C)C)NC(=O)[C@H](CC(N)=O)NC(=O)C(C)(C)NC(=O)[C@H](CCCNC(=N)N)NC(=O)[C@H](CCCCN)NC1=O)[C@@H](C)O` [PSM-0391, Ac-Thr-Aib-Phe-[Cys-Lys-Arg-Aib-Asn-Cys]-Tle-Thr-Ape-DOTA] (Ac-T[Aib]FCKR[Aib]NC[Tle]T-{NH(CH2)5NHDOTA}; disulfide 4-9): the Kd in experiment [1] is less than 12.6 nM. Besides, the IC50 in experiment [2] was less than 200 nM.

With `CC(=O)N[C@H](C(=O)NC(C)(C)C(=O)N[C@@H](Cc1ccccc1)C(=O)N[C@H]1CSSC[C@@H](C(=O)N[C@H](C(=O)N[C@H](C(=O)N[C@@H](CC(=O)O)C(N)=O)[C@@H](C)O)C(C)(C)C)NC(=O)[C@H](CC(N)=O)NC(=O)[C@@H]2C[C@@H](F)CN2C(=O)[C@H](CCCNC(=N)N)NC(=O)[C@H](CCCCN)NC1=O)[C@@H](C)O` [PSM-0392, Ac-Thr-Aib-Phe-[Cys-Lys-Arg-4Tfp-Asn-Cys]-Tle-Thr-Asp-NH2] (Ac-T[Aib]FCKR[Pro(trans-4-F)]NC[Tle]TD-NH2; disulfide 4-9), in experiment [1], the Kd is less than 12.6 nM. Besides, the IC50 in experiment [2] was less than 200 nM.

Turning to `CC(=O)N[C@H](C(=O)NC(C)(C)C(=O)N[C@@H](Cc1ccc(Cl)cc1)C(=O)N[C@H]1CSSC[C@@H](C(=O)N[C@H](C(=O)NCCN)C(C)(C)C)NC(=O)[C@H](CC(N)=O)NC(=O)C(C)(C)NC(=O)[C@H](CCCNC(=N)N)NC(=O)[C@H](CCCCN)NC1=O)[C@@H](C)O` [PSM-0393, Ac-Thr-Aib-Pcf-[Cys-Lys-Arg-Aib-Asn-Cys]-Tle-en] (Ac-T[Aib][Phe(4-Cl)]CKR[Aib]NC[Tle]-Ethylenediamine; disulfide 4-9), the Kd in experiment [1] was less than 12.6 nM. Moreover, the IC50 in experiment [2] is less than 200 nM.

In the case of `CC(=O)N[C@H](C(=O)NC(C)(C)C(=O)N[C@@H](Cc1ccccc1)C(=O)N[C@H]1CSSC[C@@H](C(=O)NC(C)(C)C(=O)N[C@H](C(N)=O)[C@@H](C)O)NC(=O)[C@H](CC(N)=O)NC(=O)C(C)(C)NC(=O)[C@H](CCCNC(=N)N)NC(=O)[C@H](CCCCN)NC1=O)[C@@H](C)O` [PSM-0394, Ac-Thr-Aib-Phe-[Cys-Lys-Arg-Aib-Asn-Cys]-Aib-Thr-NH2] (Ac-T[Aib]FCKR[Aib]NC[Aib]T-NH2; disulfide 4-9), in experiment [1], the Kd is 12.6 to 126 nM. In addition, the IC50 in experiment [2] was 200 to 1260 nM.

On to `CNCCCC[C@@H]1NC(=O)[C@@H](NC(=O)[C@H](Cc2ccc(F)cc2)NC(=O)C(C)(C)NC(=O)[C@@H](NC(=O)CC2CCN(C(=O)CN3CCN(CC(=O)O)CCN(CC(=O)O)CCN(CC(=O)O)CC3)CC2)[C@@H](C)O)CSSC[C@@H](C(=O)N[C@H](C(N)=O)C(C)(C)C)NC(=O)[C@H](CC(N)=O)NC(=O)C(C)(C)NC(=O)[C@H](CCCNC(=N)NC)NC1=O` [PSM-0395, DOTA-Cmp-Thr-Aib-Pff-[Cys-Lys(Me)-Arg(Me)-Aib-Asn-Cys]-Tle-NH2] ({DOTA}-[X1]T[Aib][Phe(4-F)]C[Lys(Me)][Arg(Me)][Aib]NC[Tle]-NH2; disulfide 5-10), for which the Kd in experiment [1] is less than 12.6 nM. In experiment [2], the IC50 is less than 200 nM.
